Reference: US12338223B2 (PURISYS LLC, priority 2019, dated 2025)
≈ marks a conversion by molar mass, not a printed value.

What was measured:
CB2 receptor = CB2 receptor (Homo sapiens, UniProt P34972); settings: fold lower affinity than THC; cited from earlier work
CB1 receptor [1] = biological target: T1, CB1 receptor (Homo sapiens, UniProt P21554); settings: cited from earlier work
[2] = Solubility of CBN in crystallization solvents (solvent screen); type: physicochemical; settings: organic solvent or mixture, RT
CB1 receptor [3] = biological target: T1, CB1 receptor; settings: fold lower affinity than THC; cited from earlier work

T1 sequence (P21554 whole entry): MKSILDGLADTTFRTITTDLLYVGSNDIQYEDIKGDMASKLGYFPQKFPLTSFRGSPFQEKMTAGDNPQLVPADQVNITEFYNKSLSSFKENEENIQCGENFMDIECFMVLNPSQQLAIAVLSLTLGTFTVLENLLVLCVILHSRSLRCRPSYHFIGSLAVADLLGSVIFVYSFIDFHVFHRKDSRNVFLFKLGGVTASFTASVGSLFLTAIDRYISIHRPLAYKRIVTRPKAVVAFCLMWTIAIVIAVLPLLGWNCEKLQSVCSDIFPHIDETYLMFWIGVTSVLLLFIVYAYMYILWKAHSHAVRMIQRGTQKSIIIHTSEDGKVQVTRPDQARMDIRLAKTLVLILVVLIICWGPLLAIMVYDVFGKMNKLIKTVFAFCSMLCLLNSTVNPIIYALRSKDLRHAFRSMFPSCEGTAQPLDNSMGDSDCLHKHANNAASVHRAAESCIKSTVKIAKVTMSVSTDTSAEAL
CB2 receptor, sequence (P34972 whole entry): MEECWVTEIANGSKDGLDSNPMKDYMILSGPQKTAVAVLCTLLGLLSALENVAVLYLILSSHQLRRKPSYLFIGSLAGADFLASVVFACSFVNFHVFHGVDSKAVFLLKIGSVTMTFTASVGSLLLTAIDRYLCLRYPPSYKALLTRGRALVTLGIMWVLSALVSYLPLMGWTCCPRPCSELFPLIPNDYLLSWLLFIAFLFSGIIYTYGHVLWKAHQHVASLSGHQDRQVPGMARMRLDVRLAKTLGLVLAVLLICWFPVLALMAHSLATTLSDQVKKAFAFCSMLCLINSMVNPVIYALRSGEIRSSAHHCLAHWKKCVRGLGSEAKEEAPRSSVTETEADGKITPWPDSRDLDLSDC

SMILES: CCCCCc1cc(O)c2c(c1)OC(C)(C)c1ccc(C)cc1-2 [CBN, cannabinol]
- Affinity lower relative to THC (CB2 receptor): about 3 fold
- Type of activity at CB1 receptors (CB1 receptor [1]): partial agonist
- solubility ([2]; solvent Iso-Octane): 24.9 mg/mL (≈ 80.2 mM)
- solubility ([2]; solvent n-Heptane): 33.4 mg/mL (≈ 108 mM)
- Affinity lower relative to THC (CB1 receptor [3]): 7- to 8 fold
